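Test compounds were applied to cells in 96-well plates for 48 hours at 5 doses. GI50 = concentration required for 50% inhibition of growth.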 Calls of active or inactive are those of the source. Rule as the data show it: active = GI50 up to about 1.1 µM and inactive = higher.
Legend:
Experiment in all cases: growth of human tumour cells (NCI), 48 h
[1] = tested on: SR
[2] = tested on: SW-620
[3] = tested on: LOX IMVI
[4] = tested on: MCF7
[5] = tested on: SF-539
[6] = tested on: SK-MEL-28
[7] = tested on: MOLT-4
[8] = tested on: U-251
[9] = tested on: UO-31
[10] = tested on: SF-268
[11] = tested on: OVCAR-3
[12] = tested on: HL-60
[13] = tested on: BT-549
[14] = tested on: SNB-19
[15] = tested on: K562
[16] = tested on: NCI-H226
[17] = tested on: CCRF-CEM
[18] = tested on: OVCAR-8
[19] = tested on: SK-MEL-2
[20] = tested on: OVCAR-4
[21] = tested on: RXF 393
[22] = tested on: M14
[23] = tested on: Malme-3M
[24] = tested on: SK-MEL-5
[25] = tested on: NCI-H460
[26] = tested on: HOP-62
[27] = tested on: NCI-H23
[28] = tested on: MDA-MB-435
[29] = tested on: TK-10
[30] = tested on: NCI/ADR-RES
[31] = tested on: SF-295
[32] = tested on: SN12C
[33] = tested on: UACC-62
[34] = tested on: OVCAR-5
[35] = tested on: EKVX
[36] = tested on: NCI-H522
[37] = tested on: IGROV-1
[38] = tested on: 786-0
[39] = tested on: CAKI-1
[40] = tested on: HCC 2998
[41] = tested on: HOP-92
[42] = tested on: HCT-15
[43] = tested on: KM12
[44] = tested on: HT-29
[45] = tested on: PC-3
[46] = tested on: Hs-578T
[47] = tested on: SK-OV-3
[48] = tested on: SNB-75
[49] = tested on: ACHN
[50] = tested on: RPMI-8226
[51] = tested on: A549
[52] = tested on: A498
[53] = tested on: T47D
[54] = tested on: UACC-257
[55] = tested on: COLO 205
[56] = tested on: MDA-MB-231
[57] = tested on: DU-145
[58] = tested on: HCT-116
[59] = tested on: MDA-N

Measured: GI50

C/C=C1\NC(=O)[C@H](Cc2ccccc2)NC(=O)[C@@H](C(C)C)NC(=O)[C@@H]([C@@H](C)CC)NC(=O)[C@H](NC(=O)[C@H](NC(=O)[C@H](CCCN)NC(=O)[C@H]2CCCN2C(=O)[C@H](NC(=O)[C@@H](NC(=O)[C@@H](NC(=O)[C@H](NC(=O)CCCC(C)C)C(C)C)[C@@H](C)O)C(C)C)C(C)C)[C@@H](C)CC)[C@@H](C)OC(=O)[C@H](C(C)C)NC1=O
active: [2] 0.344 µM | [4] 0.461 µM | [8] 0.344 µM | [14] 0.347 µM | [20] 0.863 µM | [24] 0.456 µM | [35] 0.265 µM
inactive: [1] 14.4 µM | [3] 3.64 µM | [5] 1.69 µM | [6] 1.5 µM | [7] 12.1 µM | [9] 2.1 µM | [10] 1.42 µM | [11] 1.36 µM | [12] 39.4 µM | [13] 3.44 µM | [15] 3.59 µM | [16] 2.23 µM | [17] 2.86 µM | [18] 4.63 µM | [19] 2.31 µM | [21] 3.1 µM | [22] 1.38 µM | [23] 2 µM | [25] 1.52 µM | [26] 1.76 µM | [27] 4.2 µM | [28] 1.14 µM | [29] 1.85 µM | [30] 3.04 µM | [31] 1.69 µM | [32] 2.64 µM | [33] 1.42 µM | [34] 1.63 µM | [36] 3.71 µM | [37] 1.44 µM | [38] 1.74 µM

CCNCCNC(=O)c1ccc(I)cc1
inactive: [1] > 100 µM | [2] > 100 µM | [3] > 100 µM | [4] > 100 µM | [5] > 100 µM | [6] > 100 µM | [39] > 100 µM | [7] > 100 µM | [40] > 100 µM | [8] > 100 µM | [9] 58.6 µM | [10] > 100 µM | [11] > 100 µM | [41] 99.8 µM | [12] > 100 µM | [13] > 100 µM | [14] > 100 µM | [15] > 100 µM | [16] 6.22 µM | [17] > 100 µM | [18] > 100 µM | [43] > 100 µM | [20] > 100 µM | [44] > 100 µM | [21] > 100 µM | [45] > 100 µM | [22] > 100 µM | [46] 81.8 µM | [24] > 100 µM | [25] > 100 µM | [27] > 100 µM | [29] > 100 µM | [30] > 100 µM | [47] > 100 µM | [32] > 100 µM | [33] > 100 µM | [48] 34.4 µM | [34] > 100 µM | [35] > 100 µM | [49] > 100 µM | [37] > 100 µM | [38] > 100 µM | [50] > 100 µM | [51] > 100 µM | [52] > 100 µM
> 100 µM: [42]

Cc1c(C(=O)O)n2c(S)nnc2c2ccccc12
inactive: [53] > 100 µM | [1] > 100 µM | [2] > 100 µM | [3] > 100 µM | [4] > 100 µM | [5] > 100 µM | [6] > 100 µM | [54] > 100 µM | [39] > 100 µM | [7] > 100 µM | [40] > 100 µM | [55] > 100 µM | [8] > 100 µM | [9] > 100 µM | [10] > 100 µM | [11] > 100 µM | [41] > 100 µM | [12] > 100 µM | [14] > 100 µM | [15] > 100 µM | [16] > 100 µM | [17] > 100 µM | [18] > 100 µM | [43] > 100 µM | [56] > 100 µM | [19] > 100 µM | [20] > 100 µM | [44] > 100 µM | [57] > 100 µM | [21] > 100 µM | [45] > 100 µM | [22] > 100 µM | [46] > 100 µM | [24] > 100 µM | [25] > 100 µM | [26] > 100 µM | [58] > 100 µM | [27] > 100 µM | [28] > 100 µM | [29] > 100 µM | [30] > 100 µM | [47] > 100 µM | [31] > 100 µM | [59] > 100 µM | [32] > 100 µM | [33] > 100 µM | [34] > 100 µM | [35] > 100 µM | [49] > 100 µM | [36] > 100 µM | [37] > 100 µM | [38] > 100 µM | [50] > 100 µM | [51] > 100 µM | [52] > 100 µM
> 100 µM: [42]

CCOC(=O)C(NC(=O)CC)(Nc1ccc(S(=O)(=O)Nc2ncccn2)cc1)C(F)(F)F (stereo unspecified)
inactive: [53] > 100 µM | [1] > 100 µM | [2] > 100 µM | [3] > 100 µM | [4] > 100 µM | [5] > 100 µM | [6] > 100 µM | [54] > 100 µM | [39] > 100 µM | [7] > 100 µM | [40] > 100 µM | [55] > 100 µM | [8] > 100 µM | [9] > 100 µM | [10] > 100 µM | [11] > 100 µM | [41] > 100 µM | [12] > 100 µM | [14] > 100 µM | [15] > 100 µM | [16] > 100 µM | [17] > 100 µM | [18] > 100 µM | [43] > 100 µM | [56] > 100 µM | [20] > 100 µM | [44] > 100 µM | [57] > 100 µM | [21] > 100 µM | [45] > 100 µM | [22] > 100 µM | [46] > 100 µM | [23] > 100 µM | [24] > 100 µM | [25] > 100 µM | [26] > 100 µM | [58] > 100 µM | [27] > 100 µM | [28] > 100 µM | [30] > 100 µM | [47] > 100 µM | [31] > 100 µM | [59] > 100 µM | [32] > 100 µM | [33] > 100 µM | [48] > 100 µM | [34] > 100 µM | [35] > 100 µM | [49] > 100 µM | [36] > 100 µM | [37] > 100 µM | [38] > 100 µM | [50] > 100 µM | [51] > 100 µM
> 100 µM: [42]

COc1ccc(OC)c(N(CN2C(=O)CCC2C(=O)O)C(C)=O)c1 (stereo unspecified)
> 100 µM: [42]
inactive: [53] > 100 µM | [1] > 100 µM | [2] > 100 µM | [3] > 100 µM | [4] > 100 µM | [5] > 100 µM | [6] > 100 µM | [54] > 100 µM | [39] > 100 µM | [7] > 100 µM | [55] > 100 µM | [8] > 100 µM | [9] > 100 µM | [10] > 100 µM | [11] > 100 µM | [41] > 100 µM | [12] > 100 µM | [14] > 100 µM | [15] > 100 µM | [16] > 100 µM | [17] > 100 µM | [18] > 100 µM | [43] > 100 µM | [56] > 100 µM | [19] > 100 µM | [20] > 100 µM | [44] > 100 µM | [57] > 100 µM | [45] > 100 µM | [22] > 100 µM | [46] > 100 µM | [23] > 100 µM | [24] > 100 µM | [25] > 10 µM | [26] > 100 µM | [58] > 100 µM | [27] > 100 µM | [28] > 100 µM | [29] > 100 µM | [30] > 100 µM | [47] > 100 µM | [31] > 100 µM | [59] > 100 µM | [32] > 100 µM | [33] > 100 µM | [48] > 100 µM | [34] > 100 µM | [35] > 100 µM | [49] > 100 µM | [36] > 100 µM | [37] > 100 µM | [38] > 100 µM | [50] > 100 µM | [51] > 100 µM | [52] > 100 µM

Source: ChEMBL document CHEMBL1201862, “PubChem BioAssay data set” (2004)
